According to patent US10533231B2, “Artificial bioluminescent enzyme” (NATIONAL INSTITUTE OF ADVANCED INDUSTRIAL SCIENCE AND …, priority 2012, dated 2020):

Columns and labels:
[1] = test system: artificial luciferase (ALuc); assay: Search for assay buffer compatible with C3 (Example 2-2); format: cell-based; details: C3 lysis; 8- and 16-minute point
Protocol: After 16-hour incubation in a CO2 incubator, 50 μL of a C3 solution was added to each well to allow for cell lysis for 20 minutes. Substrate-containing assay buffers shown in FIG. 24 were individually added simultaneously (50 μL each) to the lysate, and the relative luminescence intensities were immediately measured with an LAS-4000 (Fujifilm). After the substrate-containing assay buffers were further added, the luminescence at the 8- and 16-minute point was measured to examine the luminescence stability.

[2] = test system: EB3 cells expressing cSimgr13; assay: Stress hormone sensitivity of ES cells expressing cSimgr13 (Example 1-17); format: cell-based; details: 10^−5 M, 20 minutes
Protocol: Novel ES cells expressing cSimgr13, which is an integrated-molecule-format bioluminescent probe containing the ALuc of Example 10 in its frame structure were established to visualize stress hormone sensitivity (FIG. 17). First, EB3 cells, which are feeder-free embryonic stem cells (ES), were cultured in a 10 cm dish, and then a pcDNA3.1 (+) vector encoding cSimgr13 was introduced into the EB3 cells. In the presence of G418, transformed cells stably expressing cSimgr13 were established.
One day after the subculturing of the transformed cells in a microslide, some of the cells in the wells were used as a control (0.1% DMSO), and the others were stimulated with 10^−5 M stress hormone (cortisol) for 20 minutes. Subsequently, after lysis, the cells were illuminated using a substrate-containing assay buffer in accordance with the protocol of luminescence assay kit produced by Promega, and the luminescence intensity was measured using an LAS-4000.

[3] = molecular target: T1, integrated-molecule-format bioluminescent probe with androgen receptor (Homo sapiens, UniProt P10275); assay: Effect of adding halogen ions, androgen probe (Example 2-5); format: cell-based; details: about 100 mM
T1 construct: an androgen receptor (AR LED) was inserted therebetween; expressed in transfected cells; host or cells: COS-7
T1 sequence (P10275 669-900 limits assumed): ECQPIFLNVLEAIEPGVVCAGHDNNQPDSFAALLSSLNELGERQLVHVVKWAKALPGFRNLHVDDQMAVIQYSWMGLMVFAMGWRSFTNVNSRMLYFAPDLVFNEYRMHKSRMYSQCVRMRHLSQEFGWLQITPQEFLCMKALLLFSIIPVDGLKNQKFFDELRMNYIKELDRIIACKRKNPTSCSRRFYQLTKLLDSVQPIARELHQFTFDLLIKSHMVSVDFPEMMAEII
Protocol: After 16-hour incubation in a CO2 incubator, 50 μL of a C3 solution was added to each well to allow for cell lysis for 20 minutes.

[4] = molecular target: estrogen receptor (ER LBD) (Homo sapiens, UniProt P03372); details: 10^−5 M, 20 minutes, COS-7 cells with pSimer-r2, C16 one-shot buffer
[5] = Luminescent capsule probe, luminescence stability and intensity (Example 1-7); format: cell-based; details: localized in the endoplasmic reticulum
From the text: A “luminescent capsule” probe containing the artificial luciferase (ALuc) of the present invention in its frame structure was developed (FIG. 7). The basic molecular structure of the luminescent capsule of the present invention comprises an extracellular secretion signal (SP), ALuc, a suitable cargo protein (peptide), and a membrane localization signal. Because of the SP, the probe is first transferred to the endoplasmic reticulum, and then transferred from the endoplasmic reticulum to the plasma membrane. This probe is designed to finally localize in the plasma membrane by the function of MLS (FIG. 7 AB).
The luminescent capsule has the ability to localize a fluorescence protein (mPlum), other luciferases (RLuc8.6-535), and a peptide (DEVD sequence, etc.) in the plasma membrane. […] The luminescent reaction speed of the luminescent capsule after substrate injection was faster than those of other molecules (FIG. 7D). Further, the luminescent capsule containing a […] (SEQ ID NO: 19) was confirmed to have a different luminescent reaction speed according to the presence or absence of a cell death-inducing chemical substance (STS) (FIG. 7E). The luminescence stability of the luminescent capsule was also confirmed by using a microplate reader for luminescence measurement (FIG. 7F).

COS-7 cells [6] = assay: Luminescence image of COS-7 cell lysate on microslide (Example 1-20); format: cell-based; details: Promega lysate and assay buffer
Protocol: (§1) Similarly, COS-7 cells were cultured in a microslide produced by ibidi. After the cells were raised to a certain level, the following genes were transferred to the cells in the channels. Channel group 1: pcDNA3.1 plasmid having a gene encoding Cypridina luciferase; Channel group 2: pcDNA3.1 plasmid having a gene encoding A16-KDEL; and Channel group 3: pcDNA3.1 plasmid having a gene encoding a luminescent capsule based on A16 (i.e., A16-MLS).
After gene transfer, culturing was performed for another 16 hours. 20 minutes before imaging, 40 μL of a lysate buffer produced by Promega was added, and the resultant was allowed to stand for 20 minutes. Further, a substrate-containing assay buffer produced by Promega was added to the medium of each channel, and the luminescence image obtained after the addition was measured using an LAS-4000 (FujiFilm).

COS-7 cells [7] = assay: Living cell imaging (Example 1-20); format: cell-based; details: HBSS buffer containing substrate
Protocol: as §1, with “First, COS-7” for “Similarly, COS-7”, “encoding a luminescent enzyme derived from Renilla reniformis (RLuc8.6-535);” for “encoding Cypridina luciferase;”, “on ALuc16” for “on A16”
After gene transfer, culturing was performed for another 16 hours. Immediately before imaging, the medium was substituted with an HBSS buffer containing a substrate, and the luminescence image obtained after the substitution was measured using an LAS-4000 (FujiFilm).

estrogen receptor (ER LBD), sequence (P03372 311-547 limits assumed, species assumed): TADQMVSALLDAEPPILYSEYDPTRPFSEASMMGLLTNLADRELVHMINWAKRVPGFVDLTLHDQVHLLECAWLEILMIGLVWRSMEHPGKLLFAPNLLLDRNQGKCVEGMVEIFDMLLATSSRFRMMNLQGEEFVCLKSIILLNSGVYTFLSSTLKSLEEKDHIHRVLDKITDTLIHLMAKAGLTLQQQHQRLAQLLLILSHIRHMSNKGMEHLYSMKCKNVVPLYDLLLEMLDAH

bovine serum albumin [BSA]
luminescence stability with assay buffer [1]: the luminescence intensity and luminescence stability were poor

C[C@]12CCC(=O)C=C1CC[C@@H]1[C@@H]2[C@@H](O)C[C@@]2(C)[C@H]1CC[C@]2(O)C(=O)CO [cortisol]
luminescence vs control (0.1% DMSO) [2]: stronger luminescence than the control

[Br-].[K+] [KBr]
effect of halogen ion addition [3]: excellent results

4-hydroxytamoxifen [OHT]
luminescence higher than the background [4]: about 5 folds

B1: A16-KDEL: ALuc16 with KDEL, localized in the endoplasmic reticulum, SEQ ID NO: 18 (protein)
chain: MMGIKVLFALICFALVQANPTENKDDIDIVGVEGKFGTTDLETDLFTIVEDMNVISRDTDVDANRADRGRRGKLPGKKLPLEVLKELEANAQKAGCTRGCLICLSHIKCTAKMKKWLPGRCESWEGDKETGQGGIGEAIVDIPEIPGFKDLEPMEQFIAQVDLCVDCTTGCLKGLANVKCSDLLKKWLPSRCATFASKIQAQVDKIKGAGGSKDEL
modifications: KDEL ER retention signal; Synthetic KDEL-linked ALuc16
luminescence intensity [5]: poor luminescence intensity | luminescence of cell lysate (COS-7 cells [6]): strong luminescence | luminescence image of living cells (COS-7 cells [7]): strong luminescence image
